Species on record: Rattus norvegicus
Test: Open TG-GATES - Regimen: Daily Repeat
Assay type: toxicity, organism-based, Sprague-Dawley
Set-up: regimen Daily Repeat, gender Male, age 6 weeks
Conditions: in vivo, po, 30 mg/kg, route gavage, dose level Middle; for APTT / Bas / Eos / Fbg / Hb / Ht / Lym / MCH / MCHC / MCV / Mono / Neu / PT / Plat / RBC / Ret / WBC: tissue Blood; for KIDNEY_L / KIDNEY_R / KIDNEY_TOTAL: tissue Kidney; for LIVER: tissue Liver; for A/G / ALP / ALT / AST / BUN / CRE / Ca / Cl / DBIL / GLC / IP / K / LDH / Na / PL / RALB / TBIL / TC / TG / TP / gamma-GTP: tissue Plasma

## CN(C)CCN(Cc1cccs1)c1ccccn1
72 h, time 3 day
  TERMINAL_BW: 210.2 g
  APTT: 20.9 s
  Bas: 0%
  Eos: 0.6%
  Fbg: 325.4 mg/dL
  Hb: 13.2 g/dL
  Ht: 38.8%
  Lym: 80%
  MCH: 21.7 pg
  MCHC: 34%
  MCV: 63.8 fL
  Mono: 2%
  Neu: 16.4%
  PT: 15.9 s
  Plat: 116.7 x10_4/uL
  RBC: 609 x10_4/ul
  Ret: 6.1%
  WBC: 94.3 x10_2/uL
  KIDNEY_L: 1 g
  KIDNEY_R: 1 g
  KIDNEY_TOTAL: 2 g
  LIVER: 10.2 g
  A/G: 1.2
  ALP: 1737.4 IU/L
  ALT: 45.2 IU/L
  AST: 75.8 IU/L
  BUN: 15 mg/dL
  CRE: 0.1 mg/dL
  Ca: 11 mg/dL
  Cl: 106.2 meq/L
  DBIL: 0 mg/dL
  GLC: 175.4 mg/dL
  IP: 7.7 mg/dL
  K: 4.3 meq/L
  LDH: 224.4 IU/L
  Na: 142 meq/L
  PL: 140.8 mg/dL
  RALB: 2.9 g/dL
  TBIL: 0.012 mg/dL
  TC: 72.6 mg/dL
  TG: 82 mg/dL
  TP: 5.4 g/dL
  gamma-GTP: 1.2 IU/L
[…], time 7 day
  TERMINAL_BW: 254.5 g
  APTT: 20.7 s
  Bas: 0%
  Eos: 0.8%
  Fbg: 304.2 mg/dL
  Hb: 13.2 g/dL
  Ht: 39.1%
  Lym: 78.6%
  MCH: 21.4 pg
  MCHC: 33.7%
  MCV: 63.5 fL
  Mono: 1.6%
  Neu: 18%
  PT: 15.9 s
  Plat: 120.9 x10_4/uL
  RBC: 617 x10_4/ul
  Ret: 6.3%
  WBC: 124 x10_2/uL
  KIDNEY_L: 1.1 g
  KIDNEY_R: 1.1 g
  KIDNEY_TOTAL: 2.2 g
  LIVER: 11.7 g
  A/G: 1.1
  ALP: 1578.6 IU/L
  ALT: 40.4 IU/L
  AST: 69.2 IU/L
  BUN: 17.6 mg/dL
  CRE: 0.2 mg/dL
  Ca: 10.7 mg/dL
  Cl: 107 meq/L
  DBIL: 0 mg/dL
  GLC: 170.4 mg/dL
  IP: 7 mg/dL
  K: 4.3 meq/L
  LDH: 132.4 IU/L
  Na: 144.4 meq/L
  PL: 134.4 mg/dL
  RALB: 2.9 g/dL
  TBIL: 0.012 mg/dL
  TC: 71.4 mg/dL
  TG: 64.8 mg/dL
  TP: 5.4 g/dL
  gamma-GTP: 1.8 IU/L
[…], time 14 day
  TERMINAL_BW: 275 g
  APTT: 21.4 s
  Bas: 0%
  Eos: 1%
  Fbg: 309.6 mg/dL
  Hb: 14.2 g/dL
  Ht: 41.2%
  Lym: 77.8%
  MCH: 20.5 pg
  MCHC: 34.4%
  MCV: 59.6 fL
  Mono: 2.4%
  Neu: 18.6%
  PT: 16.2 s
  Plat: 108.7 x10_4/uL
  RBC: 691.6 x10_4/ul
  Ret: 3.9%
  WBC: 110.7 x10_2/uL
  KIDNEY_L: 1.1 g
  KIDNEY_R: 1.2 g
  KIDNEY_TOTAL: 2.3 g
  LIVER: 11.9 g
  A/G: 1.1
  ALP: 1753 IU/L
  ALT: 54.4 IU/L
  AST: 98.2 IU/L
  BUN: 18.8 mg/dL
  CRE: 0.2 mg/dL
  Ca: 10.3 mg/dL
  Cl: 107.8 meq/L
  DBIL: 0.008 mg/dL
  GLC: 166.8 mg/dL
  IP: 6.8 mg/dL
  K: 4.1 meq/L
  LDH: 177.4 IU/L
  Na: 143.8 meq/L
  PL: 131.8 mg/dL
  RALB: 2.9 g/dL
  TBIL: 0.026 mg/dL
  TC: 70.2 mg/dL
  TG: 56 mg/dL
  TP: 5.5 g/dL
  gamma-GTP: 2 IU/L
[…], time 28 day
  TERMINAL_BW: 322.8 g
  APTT: 20.7 s
  Bas: 0%
  Eos: 1.4%
  Fbg: 282 mg/dL
  Hb: 14.6 g/dL
  Ht: 42.2%
  Lym: 74.2%
  MCH: 19.2 pg
  MCHC: 34.5%
  MCV: 55.5 fL
  Mono: 2.6%
  Neu: 21.4%
  PT: 16.1 s
  Plat: 106.9 x10_4/uL
  RBC: 760.6 x10_4/ul
  Ret: 2.7%
  WBC: 115.8 x10_2/uL
  KIDNEY_L: 1.3 g
  KIDNEY_R: 1.3 g
  KIDNEY_TOTAL: 2.5 g
  LIVER: 13.7 g
  A/G: 1.1
  ALP: 1511.8 IU/L
  ALT: 74.6 IU/L
  AST: 129.2 IU/L
  BUN: 17.6 mg/dL
  CRE: 0.2 mg/dL
  Ca: 10.3 mg/dL
  Cl: 107 meq/L
  DBIL: 0.008 mg/dL
  GLC: 169 mg/dL
  IP: 6.2 mg/dL
  K: 4.2 meq/L
  LDH: 182.2 IU/L
  Na: 141.8 meq/L
  PL: 140.4 mg/dL
  RALB: 3 g/dL
  TBIL: 0.022 mg/dL
  TC: 80 mg/dL
  TG: 39.4 mg/dL
  TP: 5.6 g/dL
  gamma-GTP: 2.8 IU/L

Reference: ChEMBL document CHEMBL3885861, “Open TG-GATES”
